{"source": "patent US20220380801A1", "about": "“TRIPARTITE SYSTEMS FOR PROTEIN DIMERIZATION AND METHODS OF USE” (priority 2019, published 2022)", "key": {"hESC line Sa121": {"test_system": "hESC line Sa121", "experiment": "PRSIM-based kill switch activity in ESC cells (confluency)", "assay_type": "cell-based, human", "method": "The hESC line Sa121 (TakaraBio Europe) was also transduced with the lentiviral particles encoding the PRSIM-based kill switch fusion protein described above (SEQ ID 223). Cells (passage 19) were plated at 3.5×10^5 cells/cm^2 in the DEF-CS culture system, and the cells were transduced 30 h later. 24 h after transduction, puromycin selection was initiated and the antibiotic selection was maintained until a stable cell pool was achieved.\nTo test the induction of the kill switch in Sa121 ES cells, the cells were plated at 3.5×10^5/cm^2 two days before inducing kill switch activity by treating with simeprevir at concentrations from 10 nm to 1 uM. The cells were imaged using the Incucyte S3 (EssenBioscience) at intervals ranging from 10-20 min; kill switch efficiency was quantified by image analysis of confluency."}, "MED18852 expression": {"test_system": "MED18852 expression", "experiment": "Transcriptional regulation assay, antibody (MED18852) expression", "assay_type": "cell-based, human", "conditions": "DBD-PRSIM_23 (three tandem copies); 48 hours after simeprevir", "description": "The DNA sequence encoding MED18852 (SEQ ID NO: 237 and SEQ ID NO: 238, separated by an internal ribosome entry site (IRES) sequence) was purchased as a as a DNA string from GeneArt and cloned into the pZFHD1-2 vector (Takara) downstream of the ZFHD1 inducible promoter using Gibson assembly cloning. The nucleotide sequence of the final construct was confirmed by sequencing.\nFor the quantification of antibody expression (MED18852) utilising the transcriptional regulation assay, the cells were co-transfected with a pHet-Act1-2 plasmid (containing the HCV NS3/4A PR (S139A):PRSIM_23) and a pZFHD1 plasmid (encoding MED18852); 24 hours later wells were treated with different concentrations of simeprevir. Antibody concentration was determined in the supernatants 48 hours post the addition of simeprevir using MSD kit (Singleplex Human/NHP IgG Isotyping Kit (Mesoscale)."}, "[1]": {"test_system": "HCT116 cells stably expressing the PRSIM-based kill switch", "experiment": "Kill switch cell viability (phase contrast)", "assay_type": "cell-based, human", "conditions": "100 nM simeprevir, wt kill switch", "method": "(§1) HCT116 and HT29 transduced cells were generated following the same protocol with exception of using McCoy's 5A medium+10% foetal bovine serum as growth medium, supplemented with 2 μg/ml puromycin for selection of transduced cells.\n(§2) HEK293, HCT116 or HT29 cells stably expressing the PRSIM-based kill switch fusion protein (SEQ ID NO: 223) or HEK293 cells stably expressing the PRSIM kill switch S196A mutant fusion protein (SEQ ID NO: 230) were plated onto collagen-coated 96-well plates and 24 h later treated with 100 nM simeprevir. Phase contrast images were acquired at various timepoints using 10× or 20× objectives on an Incucyte Zoom (EssenBioscience)."}, "[2]": {"test_system": "HT29 cells stably expressing the PRSIM-based kill switch", "experiment": "Kill switch cell viability (phase contrast)", "assay_type": "cell-based, human", "conditions": "100 nM simeprevir, wt kill switch", "method": "as §1, §2"}, "WT HCV NS3/4A PR": {"molecular_target": "WT HCV NS3/4A PR (Hepatitis C virus subtype 1a, UniProt A8DG50, A1066T/I1043Q/I1044E/L1039E/L1040E/L1047Q, form not given)", "experiment": "Isothermal calorimetry", "assay_type": "binding", "conditions": "ITC, 37° C.", "method": "(§3) Isothermal calorimetry (ITC) was carried out using the Auto-ITC 200 (Malvern), with a preliminary injection of 0.4 μl followed by 19 injections of 2 μl each, at 120 second intervals. Rotation of the solution was set to 750 rpm and temperature 37° C. […] The WT was run once; the S139A mutant was run in duplicate. The data were analysed with the ITC-PEAQ software (Malvern) using a one-site binding model and reference subtraction point-by-point."}, "S139A HCV NS3/4A PR": {"molecular_target": "S139A HCV NS3/4A PR (Hepatitis C virus subtype 1a, UniProt A8DG50, A1066T/I1043Q/I1044E/L1039E/L1040E/L1047Q/S1165A, form not given)", "experiment": "Isothermal calorimetry", "assay_type": "binding", "conditions": "ITC, 37° C.", "method": "as §3"}}}
{"molecule": "COc1ccc2c(O[C@@H]3C[C@H]4C(=O)N[C@]5(C(=O)NS(=O)(=O)C6CC6)C[C@H]5/C=C\\CCCCN(C)C(=O)[C@@H]4C3)cc(-c3nc(C(C)C)cs3)nc2c1C", "note": "[simeprevir]", "values": [{"measurement": "cell killing", "setting": "hESC line Sa121; 10 nM simeprevir, 4 hours timeframe", "value": "maximal cell killing was not reached"}, {"measurement": "cell killing", "setting": "hESC line Sa121; 100 nM simeprevir, within 4 hours", "value": "~90", "unit": "%"}, {"measurement": "onset of cell killing", "setting": "hESC line Sa121; 1 μM simeprevir", "value": "~15", "unit": "min"}, {"measurement": "cells eliminated (cell confluency)", "setting": "hESC line Sa121; 1 μM simeprevir, within 4 hours, kill switch-transduced Sa121", "value": "up to 95%"}, {"measurement": "response to simeprevir", "setting": "hESC line Sa121; wt (non-transduced) Sa121 cells", "value": "did not respond to treatment with simeprevir"}, {"measurement": "expression of MED18852", "setting": "MED18852 expression", "value": "dependent on the dose of simeprevir"}, {"measurement": "cell death", "setting": "[1]", "value": "rapid cell death"}, {"measurement": "cell death", "setting": "[2]", "value": "rapid cell death"}, {"measurement": "stoichiometry", "setting": "WT HCV NS3/4A PR", "value": "~0.6", "unit": "Sim/NS3 binding sites"}, {"measurement": "ΔH", "setting": "WT HCV NS3/4A PR", "value": "~22", "unit": "kcal/mol"}, {"measurement": "stoichiometry", "setting": "S139A HCV NS3/4A PR", "value": "~0.6", "unit": "Sim/NS3 binding sites"}, {"measurement": "ΔH", "setting": "S139A HCV NS3/4A PR", "value": "~22", "unit": "kcal/mol"}]}
